≈ marks a conversion by molar mass, not a printed value. Read-outs that look alike come from different tables or passages of the source.
Columns and labels:
[1] = test system: E. coli expressing AmpC β-lactamase; test: microbe, parasite or virus in culture; type: cell-based; details: for Minimum inhibitory concentration (MIC): E. coli expressing AmpC β-lactamase, Luria Broth, about 5×10^5 CFU/mL
Procedure: (§1) Microbiology. Serial dilution assays in ligand culture were performed to examine the efficacy of these awkward β-lactams against clinically relevant pathogens grown in liquid culture (Table 3). The compounds were dissolved in KPi or tris hydroxymethyl aminomethane hydrochloride to a concentration of 20-50 mM, and serial dilutions were performed into Luria Broth (Difco, Detroit Mich.). Each broth solution was then inoculated with bacterial cells from an overnight culture that had been diluted to give an inoculum concentration of approximately 5×10^5 CFU/mL.

[2] = test system: E. coli not expressing AmpC β-lactamase; test: microbe, parasite or virus in culture; type: cell-based; details: for Minimum inhibitory concentration (MIC): E. coli not expressing AmpC β-lactamase, Luria Broth, about 5×10^5 CFU/mL
Procedure: as §1

AmpC β-lactamase [3] = target: T1, AmpC β-lactamase (Escherichia coli, UniProt P00811); details: hydrolysis by AmpC, 1.75 nM enzyme, 50 mM Tris pH 7
Procedure: Escherichia coli. AmpC β-lactamase was expressed and purified to homogeneity as previously described. The AmpC-catalyzed hydrolysis of the various β-lactams was monitored in an HP8453 UV/visible spectrophotometer. […] The reaction buffer used during the assays was 50 mM tris hydroxymethyl aminomethane hydrochloride (Fisher, Fair Lawn N.J.) at pH 7 in doubly-deionized water. kcat and KM values were determined at an enzyme concentration of 1.75 nM, with enzyme concentration determined, from more concentrated stocks, based on an ε280 of 0.098 μM^−1 cm^−1. […] Except for compounds synthesized for this study (ATMO-penicillin, ATMO-loracarbef), all compounds were used as supplied from the manufacturers without further purification.
Enzymology. The AmpC-catalyzed hydrolysis of the β-lactams cefotaxime, ATMO-penicillin, and ATMO-loracarbef (FIG. 1B) were monitored by UV-vis spectroscopy (Table 1).

AmpC β-lactamase [4] = target: T1, AmpC β-lactamase; test: biochemical; set-up: made in house; details: for IC50 compared to cefotaxime (fold lower): relative to cefotaxime IC50
[5] = test system: CC(=O)OCC1=C(C(=O)O)N2C(=O)[C@@H](NC(=O)Cc3cccs3)[C@H]2SC1; test: purified protein, by the assay type; details: other: hydrolysis by AmpC, 1.75 nM enzyme, 50 mM Tris pH 7
[6] = test system: CO/N=C(\C(=O)N[C@@H]1C(=O)N2[C@@H]1SC(C)(C)[C@@H]2C(=O)O)c1csc(N)n1; test: purified protein, by the assay type; details: other: hydrolysis by AmpC, 1.75 nM enzyme, 50 mM Tris pH 7
[7] = test system: CO/N=C(\C(=O)N[C@@H]1C(=O)N2C(C(=O)O)=C(COC(C)=O)CS[C@H]12)c1csc(N)n1; test: purified protein, by the assay type; details: other: hydrolysis by AmpC, 1.75 nM enzyme, 50 mM Tris pH 7
[8] = Escherichia coli, read-out: Minimum inhibitory concentration (MIC)

T1 sequence (P00811 20-377): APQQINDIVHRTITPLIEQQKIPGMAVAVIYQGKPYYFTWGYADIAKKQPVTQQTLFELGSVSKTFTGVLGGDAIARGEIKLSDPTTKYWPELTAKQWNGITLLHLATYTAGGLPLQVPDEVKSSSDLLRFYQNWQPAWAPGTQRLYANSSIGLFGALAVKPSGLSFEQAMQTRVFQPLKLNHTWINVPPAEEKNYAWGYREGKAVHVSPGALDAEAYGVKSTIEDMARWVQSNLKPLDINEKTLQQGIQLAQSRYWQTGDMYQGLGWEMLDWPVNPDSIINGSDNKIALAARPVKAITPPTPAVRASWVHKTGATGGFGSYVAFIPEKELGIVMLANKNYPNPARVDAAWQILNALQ

With `N[C@@H](C(=O)N[C@@H]1C(=O)N2C(C(=O)O)=C(Cl)CC[C@H]12)c1ccccc1` [Loracarbef, loracarbef] the “Minimum inhibitory concentration (MIC)” value [1] was 8 µg/mL (≈ 22.9 µM), the “Minimum inhibitory concentration (MIC)” value [2] was 4 µg/mL (≈ 11.4 µM) and the Kcat (AmpC β-lactamase [3]) was 118.3 s⁻¹. The Km (AmpC β-lactamase [3]) was 23.7 µM and the Kcat (AmpC β-lactamase [3]; listed as loracarbef) was 118 s⁻¹.

In the case of `CO/N=C(\C(=O)N[C@@H]1C(=O)N2C(C(=O)O)=C(COC(C)=O)CS[C@H]12)c1csc(N)n1` [Cefotaxime, cefotaxime], the IC50 (AmpC β-lactamase [4]) is reported as 800 nM, the “Minimum inhibitory concentration (MIC)” value [1] is reported as 1/32 and the “Minimum inhibitory concentration (MIC)” value [2] is reported as 1/128.

With `CC(=O)OCC1=C(C(=O)O)N2C(=O)[C@@H](NC(=O)Cc3cccs3)[C@H]2SC1` [Cephalothin, cephalothin] the MIC [1, 8] was 64 µg/mL (≈ 161 µM), the MIC [2, 8] was 8 µg/mL (≈ 20.2 µM) and the Kcat (AmpC β-lactamase [3]) was 263 s⁻¹.

With `CO/N=C(\C(=O)N[C@@H]1C(=O)N2[C@@H]1SC(C)(C)[C@@H]2C(=O)O)c1csc(N)n1` [ATMO-penicillin] the IC50 (AmpC β-lactamase [4]) was 900 nM, the “IC50 compared to cefotaxime (fold lower)” value (AmpC β-lactamase [4]) was “comparable to cefotaxime” and the Kcat (AmpC β-lactamase [3]) was < 0.0045 s⁻¹.

`CC1(C)S[C@@H]2[C@H](NC(=O)Cc3ccccc3)C(=O)N2[C@H]1C(=O)O` [Penicillin G, penicillin G] was tested, and the Kcat (AmpC β-lactamase [3]) was 133.1 s⁻¹, the Km (AmpC β-lactamase [3]) was 5.05 µM and the Kcat (AmpC β-lactamase [3]; listed as penicillin G) was 133 s⁻¹.

In the case of “AmpC β-lactamase (Escherichia coli K-12)”, the Km [5] is reported as 31.3 µM, the kcat [5] is reported as 262 s⁻¹ and the kcat [6] is reported as < 0.0045 s⁻¹. For the same compound, the kcat [7] was 0.0448 s⁻¹.

For `CON=C(C(=O)NC1C(=O)N2C(C(=O)O)=C(Cl)CCC12)c1csc(N)n1` (centres unmarked) [ATMO-loracarbef, 7-ATMO-3-chloro-carbacephem], the IC50 (AmpC β-lactamase [4]; against 200 μM nitrocefin, read-out: IC50) was 80 nM, the “IC50 compared to cefotaxime (fold lower)” value (AmpC β-lactamase [4]) was 11 fold and the “Minimum inhibitory concentration (MIC)” value [1] was 1 µg/mL (≈ 2.5 µM). The “Minimum inhibitory concentration (MIC)” value [2] was “¼” and the Kcat (AmpC β-lactamase [3]) was 0.0323 s⁻¹.

Reference: patent US20050245498A1, “Sterically-awkward beta-lactamase inhibitors” (priority 2002, published 2005)
